# From ChEMBL document CHEMBL1201862, “PubChem BioAssay data set” (2004)
#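 Briefly, cells in 96-well plates were exposed to five compound concentrations for 48 h, and endpoints were estimated by linear interpolation. GI50 is the concentration that inhibits growth by half.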 The source made the active and inactive calls. Cut-off read from the data, not from the text of the source: active = GI50 up to about 1.1 µM and inactive = higher.
# What was measured:
# Experiment in all cases: NCI tumour cell line growth inhibition, 48 h
# RPMI-8226 = system: RPMI-8226
# SN12C = system: SN12C
# PC-3 = system: PC-3
# SW-620 = system: SW-620
# T47D = system: T47D
# OVCAR-3 = system: OVCAR-3
# Malme-3M = system: Malme-3M
# OVCAR-8 = system: OVCAR-8
# MCF7 = system: MCF7
# A498 = system: A498
# SF-295 = system: SF-295
# 786-0 = system: 786-0
# SK-OV-3 = system: SK-OV-3
# SK-MEL-28 = system: SK-MEL-28
# K562 = system: K562
# OVCAR-5 = system: OVCAR-5
# NCI-H226 = system: NCI-H226
# NCI-H23 = system: NCI-H23
# RXF 393 = system: RXF 393
# IGROV-1 = system: IGROV-1
SMILES,GI50 (RPMI-8226),GI50 (SN12C),GI50 (PC-3),GI50 (SW-620),GI50 (T47D),GI50 (OVCAR-3),GI50 (Malme-3M),GI50 (OVCAR-8),GI50 (MCF7),GI50 (A498),GI50 (SF-295),GI50 (786-0),GI50 (SK-OV-3),GI50 (SK-MEL-28),GI50 (K562),GI50 (OVCAR-5),GI50 (NCI-H226),GI50 (NCI-H23),GI50 (RXF 393),GI50 (IGROV-1)
CC(=O)NC1C(OCc2ccccc2)OC(CO)C(O)C1OC(C)C(=O)NC(C)C(=O)NC(CCC(=O)NCCCCNc1c2ccccc2nc2cccc([N+](=O)[O-])c12)C(N)=O (stereo not given),0.0118 µM (active),0.0284 µM (active),0.0989 µM (active),0.00741 µM (active),0.291 µM (active),0.139 µM (active),0.0348 µM (active),0.0228 µM (active),0.00995 µM (active),0.131 µM (active),0.196 µM (active),0.0198 µM (active),0.22 µM (active),0.163 µM (active),0.0106 µM (active),0.336 µM (active),0.0962 µM (active),0.0457 µM (active),0.0199 µM (active),0.24 µM (active)
O=c1cc(/C=C/c2ccc(O)c(O)c2)oc(/C=C/c2ccc(O)c(O)c2)c1,6.58 µM (inactive),4.29 µM (inactive),5.73 µM (inactive),4.83 µM (inactive),1.98 µM (inactive),3.19 µM (inactive),5.06 µM (inactive),4.4 µM (inactive),3.29 µM (inactive),3.84 µM (inactive),9.06 µM (inactive),5.75 µM (inactive),9.02 µM (inactive),11.9 µM (inactive),2.11 µM (inactive),17.2 µM (inactive),5.16 µM (inactive),4.57 µM (inactive),2.72 µM (inactive),4.17 µM (inactive)
CO[C@@H]1C=C[C@@]23c4cc5c(cc4C(O)N(CC2O)C3C1)OCO5 (stereo not given in full),4.18 µM (inactive),4.15 µM (inactive),3.56 µM (inactive),4.33 µM (inactive),3.35 µM (inactive),4.86 µM (inactive),6.97 µM (inactive),3.63 µM (inactive),1.98 µM (inactive),3.15 µM (inactive),5.41 µM (inactive),3.21 µM (inactive),3.66 µM (inactive),5.04 µM (inactive),3.48 µM (inactive),4.91 µM (inactive),36.5 µM (inactive),4.29 µM (inactive),5.62 µM (inactive),3.78 µM (inactive)
O=Cc1ccc(-c2nccc3c2[nH]c2ccccc23)o1,> 81.8 µM (inactive),> 100 µM (inactive),98.2 µM (inactive),> 100 µM (inactive),47.9 µM (inactive),> 75.7 µM (inactive),> 100 µM (inactive),> 87.1 µM (inactive),55 µM (inactive),0.585 µM (active),20.4 µM (inactive),> 89.9 µM (inactive),97.7 µM (inactive),> 100 µM (inactive),> 100 µM (inactive),12.3 µM (inactive),1.31 µM (inactive),> 100 µM (inactive),22.2 µM (inactive),> 73.3 µM (inactive)
CCOC1(OCC)N=C(N)C2(C#N)C3(C(=O)N(C(C)C)N=C3C)C12C#N (stereo not given),> 100 µM (inactive),> 100 µM (inactive),> 100 µM (inactive),> 100 µM (inactive),> 100 µM (inactive),44.3 µM (inactive),> 100 µM (inactive),> 100 µM (inactive),> 100 µM (inactive),> 100 µM (inactive),> 100 µM (inactive),> 100 µM (inactive),> 100 µM (inactive),> 100 µM (inactive),> 100 µM (inactive),> 100 µM (inactive),> 100 µM (inactive),> 100 µM (inactive),> 100 µM (inactive),> 100 µM (inactive)
Clc1cccc(/C=N/C23CC4CC(CC(C4)C2)C3)c1Cl,> 10 µM (inactive),> 10 µM (inactive),> 10 µM (inactive),> 10 µM (inactive),> 10 µM (inactive),> 10 µM (inactive),> 10 µM (inactive),> 10 µM (inactive),> 10 µM (inactive),> 10 µM (inactive),> 10 µM (inactive),> 10 µM (inactive),> 10 µM (inactive),> 10 µM (inactive),> 10 µM (inactive),> 10 µM (inactive),> 10 µM (inactive),> 10 µM (inactive),> 10 µM (inactive),> 10 µM (inactive)
Brc1ccc2c(-c3nc(-c4c[nH]c5ccc(Br)cc45)cs3)c[nH]c2c1,3.43 µM (inactive),4.63 µM (inactive),6 µM (inactive),4.61 µM (inactive),4.86 µM (inactive),10.2 µM (inactive),4.24 µM (inactive),7.14 µM (inactive),0.887 µM (active),2.41 µM (inactive),3.92 µM (inactive),2.24 µM (inactive),15.4 µM (inactive),11.3 µM (inactive),3.44 µM (inactive),2.96 µM (inactive),1.94 µM (inactive),3.24 µM (inactive),4.45 µM (inactive),2.99 µM (inactive)
COC(=O)c1cnn2c1n[n+]([O-])c1ccccc12,> 100 µM (inactive),> 100 µM (inactive),> 100 µM (inactive),> 100 µM (inactive),> 100 µM (inactive),25.9 µM (inactive),> 100 µM (inactive),> 100 µM (inactive),> 100 µM (inactive),30.3 µM (inactive),> 100 µM (inactive),> 100 µM (inactive),> 100 µM (inactive),> 100 µM (inactive),> 100 µM (inactive),> 100 µM (inactive),> 100 µM (inactive),57 µM (inactive),> 100 µM (inactive),> 100 µM (inactive)
O=C(O)c1ccc(/C=N/N=C2c3ccccc3-c3ccccc32)cc1,63.7 µM (inactive),31.5 µM (inactive),35 µM (inactive),36.1 µM (inactive),64 µM (inactive),19.6 µM (inactive),29 µM (inactive),49.8 µM (inactive),33.2 µM (inactive),> 100 µM (inactive),12.7 µM (inactive),> 100 µM (inactive),74.3 µM (inactive),62.4 µM (inactive),55.8 µM (inactive),50.2 µM (inactive),22.4 µM (inactive),53.8 µM (inactive),89.9 µM (inactive),54.8 µM (inactive)
C=C(C)[C@@H]1CC[C@]2(C(=O)O)CC[C@]3(C)[C@H](CC[C@@H]4[C@@]5(C)CC[C@H](O)C(C)(C)[C@@H]5CC[C@]43C)[C@@H]12 [BETULINIC ACID],7.36 µM (inactive),10.8 µM (inactive),7.48 µM (inactive),18.2 µM (inactive),7.13 µM (inactive),2.61 µM (inactive),7.59 µM (inactive),4.85 µM (inactive),13.7 µM (inactive),6.08 µM (inactive),7.71 µM (inactive),10.2 µM (inactive),15.9 µM (inactive),17.1 µM (inactive),5.13 µM (inactive),12.4 µM (inactive),13.2 µM (inactive),2.58 µM (inactive),2.64 µM (inactive),11.9 µM (inactive)
O=C(O)C#Cc1ccc([N+](=O)[O-])cc1,> 100 µM (inactive),> 100 µM (inactive),> 100 µM (inactive),> 100 µM (inactive),> 100 µM (inactive),> 100 µM (inactive),> 100 µM (inactive),> 100 µM (inactive),> 100 µM (inactive),> 100 µM (inactive),> 100 µM (inactive),> 100 µM (inactive),> 100 µM (inactive),> 100 µM (inactive),> 100 µM (inactive),> 100 µM (inactive),> 100 µM (inactive),> 100 µM (inactive),> 100 µM (inactive),> 100 µM (inactive)
CCOC(=O)Cn1sc2ncc([N+](=O)[O-])cc2c1=O,8 µM (inactive),16.6 µM (inactive),14.8 µM (inactive),16.1 µM (inactive),16.5 µM (inactive),16.8 µM (inactive),17.9 µM (inactive),16.3 µM (inactive),18.1 µM (inactive),> 100 µM (inactive),18.9 µM (inactive),16.9 µM (inactive),18.3 µM (inactive),15.1 µM (inactive),2.84 µM (inactive),19.2 µM (inactive),> 100 µM (inactive),17.9 µM (inactive),20 µM (inactive),13.2 µM (inactive)
N=C(N)N/N=C/c1c(-c2ccc(N)cc2)nc2sccn12,30.8 µM (inactive),21.3 µM (inactive),22.5 µM (inactive),22.8 µM (inactive),21.1 µM (inactive),21.8 µM (inactive),61 µM (inactive),34.5 µM (inactive),31.6 µM (inactive),25.9 µM (inactive),23.4 µM (inactive),23.9 µM (inactive),24.8 µM (inactive),> 100 µM (inactive),26.1 µM (inactive),21.4 µM (inactive),> 100 µM (inactive),28.1 µM (inactive),18.2 µM (inactive),60.8 µM (inactive)
CCCCC(=O)OC[n+]1ccc2c(C)c3[nH]c4ccc(OC)cc4c3c(C)c2c1,0.0675 µM (active),0.146 µM (active),0.308 µM (active),0.14 µM (active),1.03 µM (active),0.76 µM (active),1.16 µM (inactive),0.171 µM (active),0.168 µM (active),0.923 µM (active),0.356 µM (active),0.118 µM (active),0.656 µM (active),1.32 µM (inactive),0.0702 µM (active),1.67 µM (inactive),0.562 µM (active),0.536 µM (active),0.929 µM (active),0.284 µM (active)
